US20100197642A1, “SLOW RELEASE MISOPROSTOL FOR OBSTETRIC AND/OR GYNAECOLOGICAL APPLICATIONS” (priority 2007, published 2010)

Experiments:
[1] = cited from earlier work
[2] = Pharmacokinetic study of misoprostol acid (MPA) plasma levels after SR oral, sublingual or vaginal misoprostol; format: in vivo, women; conditions: 400 μg
Protocol: A study was performed with healthy women ≧18 years with a viable intrauterine pregnancy of up to 12 weeks (47-83 days) of gestation who had requested termination of pregnancy by vacuum aspiration.
After giving their informed consent, eligible women were allocated randomly to the three treatment groups using computer generated random tables and numbered, sealed, opaque envelopes opened consecutively. […] The SR misoprostol tablets were swallowed with a small amount of water. Women allocated to vaginal misoprostol treatment inserted the tablets intravaginally themselves.
The women were admitted to hospital in the morning after fasting overnight.
The blood samples were immediately cooled in a refrigerator at +6° C. for 30-60 minutes and thereafter centrifuged in a cooled centrifuge for 10 minutes at 3000 rpm. The plasma was then drawn from the blood samples and stored at below −20° C. for further analyses. […]
AUC was calculated according to the trapezoidal method, by dividing the area under the curve into trapezium segments according to the time intervals of blood sampling. […] The AUC720 was calculated by summation of the trapezium segments. Pulse, blood pressure and temperature were measured repeatedly and side-effects such as nausea, abdominal pain, skin rash or diarrhoea were recorded, as well as any analgesics given. […]

cumulative AUC of MPA over time (FIG. 2) ([2]; sublingual group): did not continue to rise after 6 hours
cumulative AUC of MPA over time (FIG. 2) ([2]; vaginal group): did not continue to rise after 6 hours
Compound: CCCCC(C)(O)C/C=C/[C@H]1[C@H](O)CC(=O)[C@@H]1CCCCCCC(=O)OC (mixture of isomers) [misoprostol, (±) methyl 7-[3-(α-hydroxy-2-β-(4(RS)-4-hydroxy-4-methyl-trans-1-octen-1-yl)-oxycyclopent-1α-yl]heptanoate]
time at which plasma misoprostol level peaks ([1]; 400 μg oral misoprostol): about 30 minutes
time after administration with detectable levels of MPA remaining ([1]; vaginal administration): 6 h
time to maximum plasma level ([1]; vaginal administration): 70 to 80 min
